The source of these data is patent US20150224164A1, “TREATMENT OF AUTISM SPECTRUM DISORDERS USING GLYCYL-L-2-METHYLPROLYL-L-GLUMATIC ACID” (Neuren Pharmaceuticals Limited, priority 2013, published 2015).

Where a SMILES comes first, the peptide text is derived from it.

The subject of assay [1] is heterozygous Shank3-deficient mice. As to the kind of experiment: Social interaction and ultrasonic vocalization, Shank3-deficient mice (Example 13). Format: in vivo, mouse. To be noted: 15 or 60 mg/kg oral b.i.d. 14 days; vs placebo. The procedure:
1 to 3 month old wild type and heterozygous Shank3-deficient mice are divided into 4 treatment groups: placebo treated wild-type, placebo treated Shank3-deficient group and two Shank3-deficient G-2-MePE treated groups. The animals are given placebo (water) or G-2-MePE formulated in water administered orally, b.i.d for 14 days. G-2-MePE is administered at two doses: 15 or 60 mg/kg.
Behavioral assessments are made at several time points, and include analysis of social interactions and ultrasonic social communication, in line with the methodology described by Bozdagi et al. Briefly, male-female social interactions in each treatment group are evaluated. The subject males are group-housed and individually tested in clean cages with clean litter. Each testing session lasts 5 min. […] Videos from the male subjects are subsequently scored by an investigator uninformed of the subject's genotype and treatment group on measures of nose-to-nose sniffing, nose-to-anogenital sniffing and sniffing of other body regions, using Noldus Observer software (Noldus Information Technology, Leesburg, Va., USA). Ultrasonic vocalizations are identified manually by two highly trained investigators blinded to genotype/treatment group information, and summary statistics are calculated using the Avisoft package. […] Data are analysed using an unpaired Student's t-test.

The test system of another assay is 17 month old rats. The assay can be described thus: 8-arm radial maze, spatial working memory. Type of assay: in vivo, rat. To be noted: for WCC8-12 score, improvement across days: 9-day washout. The source says:
The apparatus consists of a central platform communicating with 8 identical arms, each with a food cup at the end of the arm Rats were partially food-deprived for at least 10 days prior to, and throughout the radial maze procedure. The maze was assembled and positioned so that the experimenter could clearly observe the rats' behavior from a predetermined location. The experimenter numbered the arms of the maze according to their orientation from one to eight in a clock-wise direction. On day one the doors were inserted into the arms and each rat was confined in the central platform with 20 food pellets for 5 minutes. […] The following day the rats were allowed five minutes to explore the whole maze. All arms were baited with two food pellets in the food cup located at the end of each arm, and one pellet at both the entrance and middle of each arm. This was repeated for at least five, but up to eight days for rats that explored fewer than eight arms in two consecutive sessions. […] At this point it was decided that one of the old rats that had made only one arm entry on eight of the nine days should be excluded from future testing in this procedure. Otherwise all rats were included regardless of the amount of exploring they performed in pre-training. […] 30 days before the test (five days after pre-training) the 17 Male Wistar month old rats were implanted (under halothane anesthesia) with sub-cutaneous mini-osmotic pumps (Alzet) to dispense drug continuously for 3 weeks. At the completion of the infusion the pumps were removed and the wounds re-sutured (9-day washout allowed). The treatment groups were: • 1. young controls (4 months old), n=6; • 2. saline n=10; • 3. G-2-MePE low dose (2.4 mg/kg/day) n=13 • 4. G-2-MePE high dose (12.4 mg/kg/day) n=5 Working memory testing commenced on the ninth day of washout. Rats received 10 daily training sessions over 12 days. […] The experimenter recorded the sequence of arm entries with pen and paper. […] The time taken to enter all eight arms, when this occurred, was recorded. […]

Consider `C[C@@]1(C(=O)N[C@@H](CCC(=O)O)C(=O)O)CCCN1C(=O)CN` [Example G-2-MePE, Glycyl-L-2-methylprolyl-L-glutamic acid] (HELM PEPTIDE1{G.[C[C@@]1(C(=O)[*:2])CCCN1[*:1]].E}$$$$V2.0), for which, in assay [1], the “cumulative duration of total social sniffing” value is “significant increase” and the “number of ultrasonic vocalizations” value was “increased number of ultrasonic vocalizations”. In addition, the “WCC8-12 score, improvement across days” value with 17 month old rats (high dose 12.4 mg/kg/day s.c. pump 3 weeks) is “showed the greatest improvement across days”. The “correct maze choices averaged across days” value in the assay with 17 month old rats (higher dose vs vehicle, p<0.05) was “more correct entries”. The “WCC8-12 score, improvement across days” value in the assay on 17 month old rats (low dose 2.4 mg/kg/day s.c. pump 3 weeks) is given as “very little difference”.
